In US9006394B2, “Peptide-presenting surfaces for long-term culture of pluripotent cells” (Wisconsin Alumni Research Foundation, priority 2008, dated 2015):
Ends that are not written are not given here.

Experiments:
hESCs = assay: Embryoid body differentiation after long-term culture, germ layer marker staining; assay type: cell-based, human; details: 3 months on surface, then 2 weeks EB suspension culture
Description: Images were collected with a Hamamatsu (Bridgewater, N.J.) Digital Camera mounted onto an Olympus IX81 Microscope. Primary antibodies used were as follows: Oct-4 (1:400; R&D Systems; Minneapolis, Minn.), SSEA-4 (1:400; Santa Cruz Biotechnology; Santa Cruz, Calif.), β-III tubulin (1:3000; R&D Systems), nestin (1:3000), α-fetoprotein (1:250; Sigma), FoxA2 (1:100; R&D Systems), α-smooth muscle actin (1:1000; Sigma), and fatty acid binding protein 4 (1:250; R&D Systems). Cells were fixed with PBS containing 4% formaldehyde and 0.15% picric acid for 20 minutes at 37° C. and then permeabilized and blocked with PBS containing 0.1% Triton X-100 and 0.1% bovine serum albumin (BSA). All antibodies were incubated in blocking buffer overnight at 4° C., except for the antibodies against β-III tubulin, nestin and α-smooth muscle actin, which were incubated for 1 hour at room temperature. Secondary staining was performed with Alexa Fluor® 488- and/or 594-conjugated antibodies (1:1000; Invitrogen) diluted in blocking buffer and incubated for 1 hour at room temperature. Cells were counterstained with 4′,6-diamidino-2-phenylindole, dilactate (DAPI; Invitrogen). Image overlays were generated using ImageJ (ImageJ is a public domain Java image processing program available on the World Wide Web). Peptide array mosaics were generated using the AnalySIS Acquisition Software (Olympus).

hESCs (H1 and H9) = assay: hESC culture for 6 days on peptide-AT SAM arrays, Oct-4 and SSEA-4 staining; assay type: cell-based, human
Experimental: hESCs were passaged to SAMs of peptide-AT conjugates on gold in mTeSR™1 optionally supplemented with 10 ng/ml heregulin-β1 (Peprotech; Rocky Hill, N.J.) and 5 μM Y-27632 (Calbiochem; San Diego, Calif.). […] Some surfaces presented peptide-AT conjugates of only vitronectin GBP (SEQ ID NO:1), fibronectin GBP (SEQ ID NO:2) or bone sialoprotein GBP (SEQ ID NO:3) Alternatively, some surfaces presented peptide-AT conjugates of only the integrin-binding peptide (SEQ ID NO:5), another bioactive peptide derived from fibronectin (SEQ ID NO:6), the FGF receptor binding peptide (SEQ ID NO:4), the laminin-derived bioactive peptide (SEQ ID NO:7), […] (SEQ ID NO: 8) or […] (SEQ ID NO: 9). Furthermore, some surfaces presented separate peptide-AT conjugates of the integrin-binding peptide (SEQ ID NO:5) and FGF receptor binding peptide (SEQ ID NO:4); the integrin-binding peptide (SEQ ID NO:5) and vitronectin GBP (SEQ ID NO:1); the integrin-binding peptide (SEQ ID NO:5) and bioactive peptide derived from fibronectin (SEQ ID NO:6); and the vitronectin GBP (SEQ ID NO:1) and […] (SEQ ID NO: 9). The density of the peptides on the surface varied from 0.5% to 25% (see, FIG. 1).
Images were collected with a Hamamatsu (Bridgewater, N.J.) Digital Camera mounted onto an Olympus IX81 Microscope. […]

mesoderm derivatives: staining for fatty acid binding protein 4 and α-smooth muscle actin (hESCs): stained positive
Sequence: GKKQRFRHRNRKG (not fully specified (C-terminus); listed as Homo sapiens)
ectoderm derivatives: staining for β-III tubulin and nestin (hESCs): stained positive
endoderm derivatives: staining for α-fetoprotein and FoxA2 (hESCs): stained positive
cell attachment and self-renewal, presence of Oct-4 and SSEA-4 after 6 days (hESCs (H1 and H9)): best supported both cell attachment and self-renewal
